Source: patent US7238830B2, “N-alkylaspartyl dipeptide ester compounds” (Ajinomoto Co., Inc., priority 1998, dated 2007)

Assay: Sensory evaluation of sweetness (sweetening potency) relative to sucrose
Conditions: for Sweetness (sweetening potency): sensory evaluation; for sweetness potency: values compared to sweetening potency of a 4% aqueous solution of sucrose
Text: For example, the sweetness of N-[N-[3-(3-hydroxy-4-methoxyphenyl)-3-methylbutyl]-L-α-aspartyl]-L-phenylalanine 1-methyl ester was approximately 70000 times that of sugar, the sweetness of N-[N-[3-(3-methyl-4 hydroxyphenyl)-3-methylbutyl]-L-α-aspartyl]-L-phenylalanine 1-methyl ester was approximately 70000 times that of sugar, the sweetness of N-[N-[3-(3-hydroxy-4-methylphenyl)-3-methylbutyl]-L-α- aspartyl]-L-phenylalanine 1-methyl ester was approximately 60000 times that of sugar, and the sweetness of N-[N-((RS)-3-(3 hydroxy-4-methoxyphenyl) butyl]-L-α-aspartyl]-L-phenylalanine 1-methyl ester was approximately 50000 times that of sugar. […] Sensory evaluations can be performed as described in, for example, B. T. Carr, S. D. Pecore, K. M. Gibes and G. E. Dubois, “Sensory Methods for Sweetner Evaluation” in Flavor Measurement, edited by C. T. Ho and C. H. Manley, Marcel Decker, Inc. (1992).

| SMILES | Sweetness (sweetening potency) | sweetness potency | Sweetness (sweetening potency) (listed as Example 11) | Sweetness (sweetening potency) (listed as Example 17) |
| --- | --- | --- | --- | --- |
| COC(=O)[C@H](Cc1ccccc1)NC(=O)[C@H](CC(=O)O)NCCC1(c2ccc(O)c(OC)c2)CCCC1 [Compound 20, N-[N-[2-[1-(3-methoxy-4-hydroxyphenyl)cyclopentyl]ethyl]-L-α-aspartyl]-L-phenylalanine 1-methyl ester] | 30000 times the sweetness of sugar | 30000 | – | – |
| COC(=O)[C@H](Cc1ccccc1)NC(=O)[C@H](CC(=O)O)NCCC(C)(C)c1ccc(OC)cc1O [Compound 14, N-[N-[3-(2-hydroxy-4-methoxyphenyl)-3-methylbutyl]-L-α-aspartyl]-L-phenylalanine 1-methyl ester] | 20000 times the sweetness of sugar | 20000 | – | – |
| COC(=O)[C@H](Cc1ccccc1)NC(=O)[C@H](CC(=O)O)NCC(C)Cc1ccc(OC)c(O)c1 (mixture of isomers) [Compound 12, N-[N-[3-(3-hydroxy-4-methoxyphenyl)-(RS)-2-methylpropyl)-L-α-aspartyl)-L-phenylalanine 1-methyl ester] | 5000 times the sweetness of sugar | 5000 | – | – |
| COC(=O)[C@H](Cc1ccccc1)NC(=O)[C@H](CC(=O)O)NCCC(C)(C)c1ccc2c(c1)OCO2 [Compound 16, N-[N-[3-(3,4-methylenedioxyphenyl)-3-methylbutyl]-L-α-aspartyl]-L-phenylalanine-1-methyl ester] | 30000 times the sweetness of sugar | 30000 | – | – |
| COC(=O)[C@H](Cc1ccccc1)NC(=O)[C@H](CC(=O)O)NCCC(C)(C)c1ccc(O)c(C)c1 [Compound 18, N-[N-[3-(3-methyl-4-hydroxyphenyl)-3-methylbutyl)-L-α-aspartyl]-L-phenylalanine 1-methyl ester] | approximately 70000 times the sweetness of sugar | 70000 | 70000 times the sweetness of sugar | – |
| COC(=O)[C@H](Cc1ccc(O)cc1)NC(=O)[C@H](CC(=O)O)NCCC(C)c1ccc(O)c(OC)c1 (mixture of isomers) [Compound 5, N-[N-[(RS)-3-(3-methoxy-4-hydroxyphenyl)butyl]-L-α-aspartyl]-L-tyrosine 1-methyl ester] | 25000 times the sweetness of sugar | 25000 | – | – |
| COC(=O)[C@](C)(Cc1ccccc1)NC(=O)[C@H](CC(=O)O)NCCC(C)(C)c1ccc(OC)c(O)c1 [Compound 22] | 40000 times the sweetness of sugar | 40000 | – | – |
| COC(=O)[C@H](Cc1ccccc1)NC(=O)[C@H](CC(=O)O)NCCC(C)(C)c1ccc(C)cc1O [Compound 15, N-[N-[3-(2-hydroxy-4-methylphenyl)-3-methylbutyl]-L-α-aspartyl]-L-phenylalanine 1-methyl ester] | 25000 times the sweetness of sugar | 25000 | – | – |
| COC(=O)[C@H](Cc1ccccc1)NC(=O)[C@H](CC(=O)O)NCCC(C)(C)c1ccc(OC)c(O)c1 | approximately 70000 times the sweetness of sugar | – | – | – |
| COC(=O)[C@H](Cc1ccccc1)NC(=O)[C@H](CC(=O)O)NCCC(C)c1ccc(OC)c(O)c1 (mixture of isomers) [Compound 4, N-[N-[(RS)-3-(3-hydroxy-4-methoxyphenyl)butyl]-L-α-aspartyl]-L-phenylalanine 1-methyl ester] | approximately 50000 times the sweetness of sugar | 50000 | – | 50000 times the sweetness of sugar |
